Experimental data as given in patent US12583893B2, “Use of esculentin and its derivatives for use in the treatment of cystic fibrosis” (UNIVERSITÀ DEGLI STUDI DI ROMA LA SAPIENZA, priority 2019, dated 2026).
“Also recorded” adds a separate entry of the source. Square brackets hold non-standard residues; d marks the D form. Ends that are not written are not given here. d(pS) = N[C@H](COP(=O)(O)O)C(=O)O

Assays:
F508del CFTR [1] = target: T1, F508del CFTR (Homo sapiens, UniProt P13569, DEL508-508); test: CFTR-dependent trans-epithelial conductance by TEER in F508del-CFBE pre-incubated with Vx-809; format: cell-based; parameters: expressed in transfected cells; host or cells: CFBE41o- human bronchial epithelial cells, lentiviral transduction (F508del-CFBE); settings: for CFTR conductance: 10 μM peptide + 20 μM FSK without GEN, 10 min, pre-incubated 24 h with 1 μM Vx-809
Description: In parallel, to evaluate CFTR activation, the same saline solution was used. After measurement of basal TEER, 20 μM FSK+50 μM GEN as positive control, or FSK+ peptides at the desired concentration were added on the epithelium apical side. Finally, 30 μM PPQ102, a specific inhibitor of CFTR, was added on the epithelium apical side. After each addition, we waited ten minutes at 37° C. before measurement. From the values of TEER measured before and after CFTR inhibition, we calculated the CFTR-dependent trans-epithelial conductance for each condition [Sondo E, Falchi F, Caci E, Ferrera L, Giacomini E, Pesce E, Tomati V, Mandrup Bertozzi S, Goldoni L, Armirotti A, Ravazzolo R, Cavalli A, Pedemonte N (2018) Pharmacological Inhibition of the Ubiquitin Ligase RNF5 Rescues F508del-CFTR in Cystic Fibrosis Airway Epithelia. Cell Chem Biol 25, 891-905 e898].
Subsequently, was investigated the ability of Esc peptides to act as potentiators of mutated CFTR, by promoting its phosphorylation state or its channel opening time, mimicking the activity of forskolin (FSK) or genistein (GEN), respectively, which are both needed for full activation of CFTR [Sondo E, Falchi F, Caci E, Ferrera L, Giacomini E, Pesce E, Tomati V, Mandrup Bertozzi S, Goldoni L, Armirotti A, Ravazzolo R, Cavalli A, Pedemonte N (2018) Pharmacological Inhibition of the Ubiquitin Ligase RNF5 Rescues F508del-CFTR in Cystic Fibrosis Airway Epithelia. Cell Chem Biol 25, 891-905 e898]. Noteworthy, the adenylate cyclase activator FSK [Ma T, Thiagarajah J R, Yang H, Sonawane N D, Folli C, Galietta L J, Verkman A S (2002) Thiazolidinone CFTR inhibitor identified by high-throughput screening blocks cholera toxin-induced intestinal fluid secretion. J Clin Invest 110, 1651-1658] is reported to trigger an increase of intracellular cAMP favouring CFTR phosphorylation by cellular protein kinases e.g. PKA, while the isoflavone GEN accelerates channel opening, by promoting NBD dimerization, and slows channel closure by stabilizing the NBD1:NBD2 dimer conformation [Schmidt A, Hughes L K, Cai Z, Mendes F, Li H, Sheppard D N, Amaral M D (2008) Prolonged treatment of cells with genistein modulates the expression and function of the cystic fibrosis transmembrane conductance regulator. Br J Pharmacol 153, 1311-1323]. The CFTR-mediated conductance of bronchial epithelium was evaluated by TEER, after 10 min, 1 h and 2 h treatment of F508del-CFBE (pre-incubated with the corrector Vx-809 in order to trigger the mutated protein to the apical membrane) with Esc(1-21)-1c (10 μM), in the absence of FSK or GEN. […] This clearly denoted that the peptide was able to potentiate CFTR activity, likely by prolonging its channel opening time.
The conductance was then measured on F508del-CFBE. […]

F508del CFTR [2] = target: T1, F508del CFTR; test: Ussing chamber short-circuit current on bronchial epithelia from homozygous F508del patient; format: cell-based; parameters: Ussing chamber experiments on bronchial epithelia from homozygous F508del patient; host or cells: primary human bronchial epithelial cells from a CF patient homozygous for F508del; settings: epithelia incubated 24 h with 1 μM Vx-809, then amiloride, cpt-cAMP and potentiator
Description: Snapwell inserts (Corning 3801) carrying differentiated bronchial epithelia were mounted in a vertical diffusion chamber, resembling a Ussing chamber with internal fluid circulation. Both apical and basolateral chambers were filled with 5 ml of saline solution. The short-circuit current was recorded with a PowerLab 4/25 (ADInstruments) analog-to-digital converter connected to a computer. Epithelia were incubated for 24 h with 1 μM Vx-809 or 0.1% DMSO. Afterwards, 10 μM amiloride was added; subsequently, CFTR channels were activated by phosphorylation upon addition of 100 μM cpt-cAMP (permeable cAMP analog). Then, 1 μM of the potentiator Vx-770 as well as each Esc peptide was added on the epithelium apical side, as indicated. Finally, 10 μM Inh172, a specific inhibitor of CFTR was added to the epithelium apical side. Measurements were done after 5 min from the addition of each substance. In parallel, epithelia pre-incubated for 24 h with each peptide and then treated with amiloride, cpt-cAMP and Vx-770 were used for comparison.
The CFTR potentiating activity of Esc peptides in primary airway epithelial cells was studied by Ussing chamber experiments on bronchial epithelia from homozygous F508del patient. Epithelia were treated for 24 h with 0.1% DMSO vehicle alone, 1 μM Vx809 or with each Esc peptide. […]

Pseudomonas aeruginosa = settings: cited from earlier work
F508del CFTR [3] = target: T1, F508del CFTR; test: Trans-epithelial electrical conductance in del508-FRT cells, position-17 analogs; format: cell-based; parameters: expressed in transfected cells; settings: 10 min treatment with 10 μM peptide tested as potentiator (instead of genistein)
Source text: To understand whether the potentiator effect of Esc peptides was specifically dependent on their sequence and/or correlated to the presence of Ser17, eventually upon its phosphorylation by PKA, a series of peptide analogs bearing different L/D amino acids at position 17 were synthesized, the analogs are presented in the following table 1. The analogs were used to measure the trans-epithelial electrical conductance in […] Rat Thyroid cells, which is a cell line frequently used for functional studies and stably expressing F508del-CFTR (del508-FRT). Among them, compounds 3 and 5 carrying L and D-Alanine, respectively; compound 6 carrying the achiral Glycine17; compounds 7 and 8, with another potential target amino acid of protein kinases i.e. D and L-threonine respectively; and compounds 9 ad 10 where Ser17 was replaced by a residue with a bulky side chain, i.e. D and L tryptophan, respectively. Furthermore, an analog with L-phosphoserine at position 17 were included for comparison.

wt-CFBE = settings: compared with Esc(1-21); cited from earlier work
F508del-CFBE = settings: compared with Esc(1-21); cited from earlier work
P. aeruginosa biofilm = settings: compared with Esc(1-21); cited from earlier work
Pseudomonas = settings: single intra-tracheal instillation, cited from earlier work

T1 sequence (P13569 with tags, fused parts or gaps DEL508-508): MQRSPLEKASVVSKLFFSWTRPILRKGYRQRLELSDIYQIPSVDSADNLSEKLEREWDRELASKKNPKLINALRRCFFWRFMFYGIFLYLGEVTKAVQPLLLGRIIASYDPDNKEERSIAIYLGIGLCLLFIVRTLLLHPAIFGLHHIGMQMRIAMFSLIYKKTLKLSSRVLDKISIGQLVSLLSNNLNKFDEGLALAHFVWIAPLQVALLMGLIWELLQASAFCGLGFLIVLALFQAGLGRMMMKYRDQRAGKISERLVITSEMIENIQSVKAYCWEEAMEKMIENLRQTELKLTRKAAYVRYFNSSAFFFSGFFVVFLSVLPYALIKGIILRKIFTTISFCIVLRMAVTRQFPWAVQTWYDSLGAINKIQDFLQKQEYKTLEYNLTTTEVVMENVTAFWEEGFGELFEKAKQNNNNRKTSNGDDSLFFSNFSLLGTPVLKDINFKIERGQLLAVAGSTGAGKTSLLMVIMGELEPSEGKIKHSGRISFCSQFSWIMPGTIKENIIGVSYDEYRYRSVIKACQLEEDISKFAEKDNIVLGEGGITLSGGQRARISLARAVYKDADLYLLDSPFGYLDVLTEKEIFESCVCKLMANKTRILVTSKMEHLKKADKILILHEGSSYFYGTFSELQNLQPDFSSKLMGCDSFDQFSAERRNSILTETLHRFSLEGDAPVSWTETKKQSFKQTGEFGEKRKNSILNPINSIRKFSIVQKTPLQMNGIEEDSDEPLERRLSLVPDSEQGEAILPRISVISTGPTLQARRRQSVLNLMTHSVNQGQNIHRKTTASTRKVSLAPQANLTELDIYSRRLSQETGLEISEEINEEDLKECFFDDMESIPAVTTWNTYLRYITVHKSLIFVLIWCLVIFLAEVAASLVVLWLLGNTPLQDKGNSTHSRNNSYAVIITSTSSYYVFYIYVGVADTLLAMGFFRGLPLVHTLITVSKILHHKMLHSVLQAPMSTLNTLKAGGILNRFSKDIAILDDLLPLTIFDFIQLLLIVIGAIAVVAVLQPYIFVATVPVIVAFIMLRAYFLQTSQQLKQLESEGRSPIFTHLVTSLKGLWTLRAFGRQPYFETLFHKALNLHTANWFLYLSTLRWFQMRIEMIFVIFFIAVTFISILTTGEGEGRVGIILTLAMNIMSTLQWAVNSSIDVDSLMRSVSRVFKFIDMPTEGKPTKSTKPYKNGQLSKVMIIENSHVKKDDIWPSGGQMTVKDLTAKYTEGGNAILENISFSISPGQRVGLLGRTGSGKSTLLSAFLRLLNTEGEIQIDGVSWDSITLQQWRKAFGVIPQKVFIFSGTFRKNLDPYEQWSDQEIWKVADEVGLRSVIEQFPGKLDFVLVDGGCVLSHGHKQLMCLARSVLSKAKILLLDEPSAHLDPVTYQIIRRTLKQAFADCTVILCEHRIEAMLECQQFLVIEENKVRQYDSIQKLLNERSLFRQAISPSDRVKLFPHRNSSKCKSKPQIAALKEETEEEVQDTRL

temporin A [reference compound]
CFTR conductance (F508del CFTR [1]): no effect on CFTR currents

CC(C)(C)c1cc(C(C)(C)C)c(NC(=O)c2c[nH]c3ccccc3c2=O)cc1O [Vx-770]
CFTR-mediated current as potentiator (F508del CFTR [2]): significant current increase

GIFSKLAGKKIKNLLISGLKG-NH2 [Esc(1-21), first 20 amino acids of Esculentin 1a with a glycinamide residue at the C-terminus]
antipseudomonal activity (Pseudomonas aeruginosa): potent antipseudomonal activity

Gly-Ile-Phe-Ser-Lys-Leu-Ala-Gly-Lys-Lys-Ile-Lys-Asn-dLeu-Leu-Ile-dphosphoSer-Gly-Leu-Lys-Gly-NH2 (GIFSKLAGKKIKN[dL]LI[d(pS)]GLKG-NH2; N-terminus assumed; SMILES CC[C@H](C)[C@H](NC(=O)CN)C(=O)N[C@@H](Cc1ccccc1)C(=O)N[C@@H](CO)C(=O)N[C@@H](CCCCN)C(=O)N[C@@H](CC(C)C)C(=O)N[C@@H](C)C(=O)NCC(=O)N[C@@H](CCCCN)C(=O)N[C@@H](CCCCN)C(=O)N[C@H](C(=O)N[C@@H](CCCCN)C(=O)N[C@@H](CC(N)=O)C(=O)N[C@H](CC(C)C)C(=O)N[C@@H](CC(C)C)C(=O)N[C@H](C(=O)N[C@H](COP(=O)(O)O)C(=O)NCC(=O)N[C@@H](CC(C)C)C(=O)N[C@@H](CCCCN)C(=O)NCC(N)=O)[C@@H](C)CC)[C@@H](C)CC) [compound 2, carrying D-phosphoSer at position 17]
transepithelial conductance (function of F508del-CFTR) (F508del CFTR [3]): significantly increase; also recorded: higher than that of genistein

Gly-Ile-Phe-Ser-Lys-Leu-Ala-Gly-Lys-Lys-Ile-Lys-Asn-dLeu-Leu-Ile-dSer-Gly-Leu-Lys-Gly-NH2 (GIFSKLAGKKIKN[dL]LI[dS]GLKG-NH2) [Esc(1-21)-1c, diastereomer of Esc(1-21) with two D-amino acids]
re-epithelialization of bronchial epithelial cells (wt-CFBE): more efficient to induce re-epithelialization
re-epithelialization of bronchial epithelial cells (F508del-CFBE): more efficient to induce re-epithelialization
activity against P. aeruginosa biofilm (P. aeruginosa biofilm): more active against P. aeruginosa biofilm
CFTR conductance (F508del CFTR [1]): significant increase of CFTR conductance
potentiator activity (CFTR conductance) over time (F508del CFTR [1]; 10 μM peptide + FSK without GEN, 1 h or 2 h treatment, pre-incubated with Vx-809): remain constant up to 2 h
CFTR-mediated conductance (rescue of CFTR activity) (F508del CFTR [1]; 10 μM peptide in the absence of FSK, pre-incubated with Vx-809): no rescue of CFTR activity
reduction of lung bacterial burden (Pseudomonas; 0.1 mg/kg corresponding to 20 μM, compared with Esc(1-21)): more potent in reducing lung bacterial burden
toxicity or inflammatory side events (Pseudomonas; 0.1 mg/kg): negligible toxicity or inflammatory side events
